Experimental data reported in patent publication US8722720B2, “Imidazole derivatives as IDO inhibitors” (NewLink Genetics Corporation, priority 2010, dated 2014).

Target: T1, purified human IDO protein (Homo sapiens, UniProt P14902)
T1 construct: 2 extra amino acids (linker from the BglII cloning site of pQE70); made in house; host or cells: E. coli M15(pREP4) with plasmid pQE70-hIDO
Experiment: Enzymatic IDO assay (kynurenine production, absorbance at 480 nm)
Format: biochemical
Settings: hIDO IC50, recombinant human IDO; values reported in ranges
Summary of the method: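 Inhibitors (final 1 mM to 5 nM, in 50 mM potassium phosphate) preincubated with enzyme 5 min at 25 °C, then 200 μM L-tryptophan added, 15 min at 37 °C. TCA stop and 60 °C hydrolysis to kynurenine, detected with p-dimethylaminobenzaldehyde at 480 nm. IC50 by nonlinear regression.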

T1 sequence (P14902 whole entry P110S/E119G): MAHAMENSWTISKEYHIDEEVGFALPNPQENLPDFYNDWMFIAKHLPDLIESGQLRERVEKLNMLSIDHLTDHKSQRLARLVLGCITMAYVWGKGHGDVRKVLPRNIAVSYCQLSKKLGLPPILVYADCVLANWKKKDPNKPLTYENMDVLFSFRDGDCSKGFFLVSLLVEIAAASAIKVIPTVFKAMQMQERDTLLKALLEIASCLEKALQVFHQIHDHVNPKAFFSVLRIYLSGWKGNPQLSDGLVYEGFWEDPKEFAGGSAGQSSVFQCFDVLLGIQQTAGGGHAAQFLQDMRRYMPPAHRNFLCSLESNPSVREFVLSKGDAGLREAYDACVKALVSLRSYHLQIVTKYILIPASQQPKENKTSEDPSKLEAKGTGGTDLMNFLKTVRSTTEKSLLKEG

SMILES | IC50
CN(C)C(=O)Oc1ccc(Cl)cc1-c1c[nH]cn1 [compound 1076, 4-chloro-2-(1H-imidazol-4-yl)phenyl dimethylcarbamate] | > 100 µM

Same assay, conditions: recombinant human IDO; values reported in ranges; read-out: hIDO IC50

SMILES | IC50
O=C(CC1CCOCC1)Nc1ccc(CCOc2ccccc2-c2c[nH]cn2)cc1Cl [compound 1297, N-(4-(2-(2-(1H-imidazol-4-yl)phenoxy)ethyl)-2-chlorophenyl)-2-(tetrahydro-2H-pyran-4-yl)acetamide] | 10 to 100 µM
Fc1ccc(COc2ccccc2-c2c[nH]cn2)cc1 [compound 1022, 4-(2-(4-fluorobenzyloxy)phenyl)-1H-imidazole] | 10 to 100 µM
CCOC(=O)Nc1ccc(CCOc2ccccc2-c2c[nH]cn2)cc1 [compound 1104, ethyl 4-(2-(2-(1H-imidazol-4-yl)phenoxy)ethyl)phenylcarbamate] | 1 to 10 µM
OC(c1ccccc1)c1c[nH]cn1 (stereo not shown) [compound 1006, (1H-imidazol-4-yl)(phenyl)methanol] | > 100 µM
O=C(COc1ccccc1-c1c[nH]cn1)C1CCCCC1 [compound 1354, 2-(2-(1H-imidazol-4-yl)phenoxy)-1-cyclohex-ylethanone] | 1 to 10 µM
O=C(CC1CCOCC1)Nc1ccc(CCOc2ccccc2-c2c[nH]cn2)c(C(F)(F)F)c1 [compound 1305, N-(4-(2-(2-(1H-imidazol-4-yl)phenoxy)ethyl)-3-(trifluoromethyl)phenyl)-2-(tetrahydro-2H-pyran-4-yl)acetamide] | < 1 µM
c1csc(-c2ccc(CCOc3ccccc3-c3c[nH]cn3)cc2)c1 [compound 1200, 4-(2-(4-(thiophen-2-yl)phenethoxy)phenyl)-1H-imidazole] | 10 to 100 µM
Nc1ccc(CC(=O)Nc2ccc(CCOc3ccccc3-c3c[nH]cn3)cc2)cc1 [compound 1250, N-(4-(2-(2-(1H-imidazol-4-yl)phenoxy)ethyl)phenyl)-2-(4-aminophenyl)acetamide] | 1 to 10 µM
Oc1c(-c2c[nH]cn2)cc(Cl)c2cccnc12 [compound 956, 5-chloro-7-(1H-imidazol-4-yl)quinolin-8-ol] | > 100 µM
Oc1cccc(OCCN2CCOCC2)c1-c1cnc[nH]1 [compound 1231, 2-(1H-imidazol-5-yl)-3-(2-morpholinoethoxy) phenol] | 10 to 100 µM
O=C(Nc1ccc(CCOc2ccccc2-c2c[nH]cn2)c(Cl)c1)C1CCCCN1 (stereo not shown) [compound 1344, N-(4-(2-(2-(1H-imidazol-4-yl)phenoxy)ethyl)-3-chlorophenyl)piperidine-2-carboxamide] | 1 to 10 µM
CCOC(=O)Oc1ccc(Br)cc1-c1cn(C(=O)OCC)cn1 [compound 1036, ethyl 4-(5-bromo-2-(ethoxycarbonyloxy)phenyl)-1H-imidazole-1-carboxylate] | 10 to 100 µM
CC(COc1ccccc1-c1c[nH]cn1)c1ccccc1 (stereo not shown) [compound 978, 4-(2-(2-phenylpropoxy)phenyl)-1H-imidazole] | 10 to 100 µM
Oc1cccc(OCCC2CC=CCC2)c1-c1cnc[nH]1 (stereo not shown) [compound 1182, 3-(2-(cyclohex-3-en-1-yl)ethoxy)-2-(1H-imidazol-5-yl)phenol] | 1 to 10 µM
c1ccc(-c2c[nH]cn2)c(OCCC2CCCO2)c1 (stereo not shown) [compound 1213, 4-(2-(2-(tetrahydrofuran-2-yl)ethoxy)phenyl)-1H-imidazole] | 10 to 100 µM
c1cc(-c2c[nH]cn2)ccn1 [compound 982, 4-(1H-imidazol-4-yl)pyridine] | > 100 µM
Oc1cccc(OCCCc2ccccc2)c1-c1cnc[nH]1 [compound 1010, 2-(1H-imidazol-5-yl)-3-(3-phenylpropoxy) phenol] | 10 to 100 µM
O=C(CC1CCOCC1)Nc1ccc(CCOc2ccccc2-c2c[nH]cn2)c(Cl)c1 [compound 1260, N-(4-(2-(2-(1H-imidazol-4-yl)phenoxy)ethyl)-3-chlorophenyl)-2-(tetrahydro-2H-pyran-4-yl)acetamide] | < 1 µM
c1ccc2oc(-c3c[nH]cn3)cc2c1 [compound 1026, 4-(benzofuran-2-yl)-1H-imidazole] | > 100 µM
c1ccc(-c2c[nH]cn2)c(OCCc2ccc(N3CCCC3)cc2)c1 [compound 1225, 4-(2-(4-(pyrrolidin-1-yl)phenethoxy)phenyl)-1H-imidazole] | 10 to 100 µM
Fc1ccccc1CCOc1ccccc1-c1cnc[nH]1 [compound 1106, 5-(2-(2-fluorophenethoxy)phenyl)-1H-imidazole] | 1 to 10 µM
O=C(O)c1ccc(COc2ccccc2-c2c[nH]cn2)cc1 [compound 1032, lithium 4-((2-(1H-imidazol-4-yl)phenoxy)methyl) benzoate] | 10 to 100 µM
c1ccc2c(c1)NCn1cncc1-2 [compound 1114, 5,6-dihydroimidazo[1,5-c]quinazoline] | > 100 µM
N[C@@H]1CCCC[C@H]1NC(=O)Nc1ccc(CCOc2ccccc2-c2c[nH]cn2)c(Cl)c1 (racemic) [compound 1361, 1-(4-(2-(2-(1H-imidazol-4-yl)phenoxy)ethyl)-3-chlorophenyl)-3-(±(1R,2R)-2-aminocyclohexyl)urea] | < 1 µM
